Assay results reported in US20220048987A1, “METHOD OF TREATMENT TO PREVENT OR REVERSE AGE-ASSOCIATED INFLAMMATION, COGNITIVE DECLINE, AND NEURODEGENERATION” (The Board of Trustees of the Leland Stanford Junior …, priority 2020, published 2022).

What was measured:
Format in all cases: cell-based
[1] = system: human monocyte-derived macrophages (human MDMs); test: Real-time oxygen consumption rate (OCR) and ECAR (Seahorse) in human MDMs; details: 20 h
Experimental: (§1) Cells were plated at 1.8×10^6 cells per well in a Seahorse XF24 Cell Culture Microplate (Agilent). Cells were then treated with indicated inhibitors or agonists in each experiment for 20 h. Cells were washed twice with Agilent Seahorse XF Media (Agilent) supplemented with 1 mM pyruvate, 2 mM L-glutamine, and 10 mM D-glucose; a final volume of 525 μl was placed in each well. Cells were then incubated in a 0% CO2 chamber at 37° C. for 1 h before being placed into a Seahorse XFe24 Analyzer (Agilent). For OCR and ECAR mitostress test experiments, cells were treated with 1 μM oligomycin, 2 μM carbonyl cyanide p-trifluoromethoxyphenylhydrazone (FCCP), and 0.5 μM rotenone/antimycin (indicated by three black arrows in each seahorse trace). For mitoFlex Fuel test experiments, cells were treated with UK5099 (200 μM) and BPTES (200 μM)/Etomoxir (80 μM). A total of three OCR and pH measurements were taken after each compound was administered. All Seahorse experiments were repeated at least three times unless otherwise indicated. All OCR and ECAR data were normalized to cell number per well using CyQUANT (ThermoFisher Scientific, Waltham, Mass., USA).
Peripheral blood mononuclear cells from de-identified healthy donors (young<35 years old, aged>65 years old) were obtained from the Stanford Blood Center and transferred to 50 ml conical tubes. Samples were diluted with 20 ml PBS and layered onto 10 ml of Ficoll-Paque (GE Healthcare) using a Pasteur pipette. Tubes were centrifuged at 1,500 r.p.m. for 25 min without brake at 20° C. The mononuclear cell layer was transferred to a new 50 ml conical tube, resuspended in 50 ml 1×PBS and centrifuged at 1500 r.p.m. for 10 min, repeated twice. After centrifugation, monocytes were isolated using a Monocyte Isolation Kit, human (MACS; Miltenyi Biotech). Cells were then plated 10×10^6 per 10-cm petri dish and differentiated for 7 days in Roswell Park Memorial Institute (RPMI) media supplemented with 10% FBS, 1% penicillin-streptomycin, and 50 ng ml^−1 M-CSF (Peprotech).

[2] = system: mouse hippocampal neurons; test: OCR and ECAR (Seahorse) in mouse hippocampal neurons; details: primary mouse hippocampal neurons, 100 nM, 20 h
Experimental: as §1
Hippocampi were dissected from embryonic Day 17.5 mice embryos, dissociated using trypsin (2 mg/ml) and DNase I (0.6 mg/ml), and plated at a density of 100, 000 cells per well in Seahorse XF24 culture plate coated with poly-L-lysine. […]

mouse astrocytes = test: OCR and ECAR (Seahorse) in mouse astrocytes; details: primary mouse astrocytes, 100 nM, 20 h
Experimental: as §1
Primary astrocyte cultures were prepared from cerebral cortices of postnatal day 1-2 C57BL/6J mice. […]

[3] = system: mouse peritoneal macrophages; test: OCR and ECAR (Seahorse) in mouse peritoneal macrophages; details: aged (18-20 mo) mouse peritoneal macrophages, 100 nM, 20 h
Experimental: as §1, with “USA). […]” for “USA).”
Cd11bCre, and WT mice. Mice were injected intraperitoneally with 1.5 ml 3% (w/v) thioglycolate medium (BD Biosciences), and primary macrophages were isolated 3-4 days later by flushing with ice-cold 1×PBS buffer (Corning). […]

human MDMs = test: Chemokine and cytokine multiplex assay, supernatant of human MDMs; details: aged (>65 yo) human MDMs, stimulated 8 h later
Experimental: Hippocampal lysates or mouse plasma were stored at −80° C. and cytokine analysis was carried out at the Human Immune Monitoring Core (Stanford University) or Eve Technologies (Calgary, Alberta, Canada) using Luminex mouse 39-plex kits and Human 71-plex kits. Plates were read using a Luminex LabMap200 instrument or a MSD Chemiluminescence instrument with a lower bound of 100 beads per sample per measured cytokine. Each sample was tested in triplicate. Mean fluorescence intensity (MFI) was averaged over duplicate wells for each cytokine per sample on each plate. All were transcardially perfused prior to isolation of hippocampi and other brain tissue.
Peripheral blood mononuclear cells from de-identified healthy donors (young<35 years old, aged>65 years old) were obtained from the Stanford Blood Center and transferred to 50 ml conical tubes. […]
Plasmid-containing human GYS1 shRNA (Table 3) or Scr (2 μg) (HuSH shRNA shGYS1 Lenti Cloning Vector [pGFP-C-shLenti]) were incubated with a mixture of nucleofection solution and P4 primary cell supplement (82 μl:18 μl nucleofection solution:supplement) and placed in nucleofection cuvettes. […] Cells were then plated in 10-cm plates and incubated 37° C. under 5% CO2 for 8 h before GYS1 protein expression was analyzed by quantitative immunoblotting.

Compound	ECAR (extracellular acidification rate, glycolysis) ([1]; human MDMs, dose response)	basal OCR (oxygen consumption) ([1]; human MDMs, dose response)	OCR and ECAR [2]	OCR and ECAR (mouse astrocytes)	basal respiration and ECAR [3]	OCR in GYS1-deficient aged human MDMs ([1]; aged (>65 yo) human MDMs nucleofected with shGYS1, 100 nM, 8 h post nucleofection)	bioenergetic or immune factor phenotypes of aged human MDMs lacking GYS1 ([1]; aged human MDMs + GYS1 shRNA, 100 nM)	immune phenotypes (immune factors in supernatant) of aged human MDMs + GYS1 shRNA (human MDMs)
CCCCC[C@H](O)/C=C/[C@H]1[C@H](O)CC(=O)[C@@H]1C/C=C\CCCC(=O)O [PGE2, prostaglandin E2]	decreased glycolysis	suppressed oxygen consumption	no significant effects	no significant effects	–	–	–	–
NS(=O)(=O)c1ccc(-n2nc(C(F)(F)F)cc2-c2ccc(Cl)cc2)cc1 [SC236]	–	–	–	–	partially phenocopies EP2 receptor antagonism	–	–	–
CCCC1([C@H](O)C/C=C/[C@H]2[C@H](O)CC(=O)[C@@H]2CCCCCCC(=O)OC)CCC1 [butaprost]	–	–	no significant effects	no significant effects	–	refractory to treatment	did not alter	refractory to further EP2 receptor activation
